We go through two compounds from PMC13052201, “Positional scanning and computational modeling reveal determinants of legumain transpeptidase activity” (Protein Science : A Publication of the Protein Society, 2026).

The target of one experiment is T1, human legumain (hLEG) (Homo sapiens, UniProt Q99538).
T1 construct: inferred from the Ni-NTA purification of the proenzyme; made in house; host or cells: LEXSY P10 cells (Leishmania tarentolae expression system), secreted into the supernatant
T1 sequence (Q99538 18-323 limits assumed): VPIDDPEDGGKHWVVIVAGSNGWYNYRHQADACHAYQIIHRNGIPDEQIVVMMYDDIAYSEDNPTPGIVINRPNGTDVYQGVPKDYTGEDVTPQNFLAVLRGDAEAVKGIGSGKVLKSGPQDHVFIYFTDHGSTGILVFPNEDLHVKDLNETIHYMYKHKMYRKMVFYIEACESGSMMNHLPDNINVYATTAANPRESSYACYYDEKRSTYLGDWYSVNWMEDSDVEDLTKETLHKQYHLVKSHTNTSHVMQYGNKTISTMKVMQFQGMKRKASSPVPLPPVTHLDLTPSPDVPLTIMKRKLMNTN
In words: Enzyme kinetic assay with fluorogenic AMC substrates, hLEG. As to conditions: 2 nM hLEG; for Km: 50 mM citric acid pH 5.5, 100 mM NaCl, 0.05% Tween-20, 37°C, ex 380/em 460 nm, Michaelis-Menten (Z-AAN-AMC) or substrate inhibition model (Z-VAN-AMC). It counts as biochemical. The method, then: K m values for the substrates Z‐AAN‐AMC (benzyloxycarbonyl‐Ala‐Ala‐Asn‐7‐amino‐4‐methylcoumarin) and Z‐VAN‐AMC (benzyloxycarbonyl‐Val‐Ala‐Asn‐7‐amino‐4‐methylcoumarin) toward hLEG were determined in 50 mM citric acid buffer (pH 5.5) containing 100 mM NaCl and 0.05% Tween‐20. Reactions were carried out at 37°C with 2 nM hLEG. Substrate concentrations ranged from 100 to 0.787 μM for Z‐AAN‐AMC and from 75 to 0.28 μM for Z‐VAN‐AMC.
Reactions were initiated by addition of the enzyme, and fluorescence was monitored in a microplate reader (CLARIOstar Plus with Voyager v2405 software, BMG Labtech) at 380 nm excitation and 460 nm emission. All measurements were performed in triplicate (n = 3).
Data analysis was performed in GraphPad Prism (v9.3.1; GraphPad Software, La Jolla, CA) using the built‐in Michaelis–Menten model for Z‐AAN‐AMC and the substrate inhibition model for Z‐VAN‐AMC. Data points corresponding to 23.73 μM Z‐VAN‐AMC were excluded from analysis, as a linear fit of the initial slope was not possible. Standard errors of the curve fits are reported for all fitted parameters.

The subject of another experiment is AtLEGβ. As to conditions: ref Dall et al., [2020]; cited from earlier work. An excerpt:
To probe non‐prime side specificity, we constructed a second peptide library using the format XXXN‐CL, fixing P1' as cysteine and P2' as leucine, based on the highest‐scoring sequences from the prime‐side screen. […] Thr and Val were especially well tolerated, a trend that persisted when P2 was fixed as Ala and P3/P4 were varied (Figure S7b). These predictions were validated experimentally by comparing AtLEGβ affinity for Z‐AAN‐AMC versus Z‐VAN‐AMC fluor ...

[1] abbreviates: pH 5.5, 37°C, n = 3, ± standard error of fit (Figure 9).

Where a SMILES comes first, the peptide text is derived from it. The star is where a group is joined. AMC = Cc1cc(=O)oc2cc(N*)ccc12; Cbz = O=C(OCc1ccccc1)*

A word on the Km: it is the substrate concentration at which the rate is half of its maximum. Take “benzyloxycarbonyl‐Ala‐Ala‐Asn‐7‐amino‐4‐methylcoumarin [Z‐AAN‐AMC]”: the Km is 55 µM at human legumain (hLEG) (n = 3, ± standard error of fit); 55.5 ± 2.4 µM at human legumain (hLEG) (n = 3, ± standard error of fit, listed as Z-AAN-AMC); 337 ± 3 µM in the experiment with AtLEGβ. In addition, the Vmax on human legumain (hLEG) (pH 5.5, 37°C, n = 3) was found to be 400 RFU/s; on human legumain (hLEG) (setting [1]), 399.6 ± 8.6 RFU/sec.

On to `Cc1cc(=O)oc2cc(NC(=O)[C@H](CC(N)=O)NC(=O)[C@H](C)NC(=O)[C@@H](NC(=O)OCc3ccccc3)C(C)C)ccc12` [Z‐VAN‐AMC, benzyloxycarbonyl‐Val‐Ala‐Asn‐7‐amino‐4‐methylcoumarin] (Cbz-Val-Ala-Asn-{AMC}), for which the Km is about 20 µM at human legumain (hLEG) (n = 3, ± standard error of fit); 19.6 ± 5.32 µM at human legumain (hLEG) (n = 3, ± standard error of fit, listed as Z-VAN-AMC); 57 ± 3 µM with AtLEGβ. The “Vmax ratio Z-VAN-AMC vs Z-AAN-AMC” value on human legumain (hLEG) (pH 5.5, 37°C) is reported as ~ 20 fold. Further, the Vmax is 7800 RFU/s on human legumain (hLEG) (pH 5.5, 37°C, n = 3) and 7776 ± 1591 RFU/sec on human legumain (hLEG) (setting [1]). The Ki on human legumain (hLEG) (pH 5.5, 37°C, substrate inhibition model, n = 3, ± standard error of fit) worked out at 16.2 ± 4.5 µM.
